Experimental data reported in patent publication US8871900B2, “Fibroblast growth factor (FGF) analogs and uses thereof” (University of Rochester, priority 2008, dated 2014).

What was measured:
[1] = tested on: proliferating crypts of small intestine; assay: Crypt assay of small intestine after sub-TBI (H&E, BrdU, villi length); type: in vivo, mouse (Balb/c, C57BL/6); conditions: Balb/c
Description: Enhanced proliferation of crypts in small intestine: The epithelium of the small intestine has a rapid turnover, renewing every 3-7 days. The stem cells are located ⅓ of the way up the […] and active mitosis can be seen above growing into the villus and below, forming the crypt. There are no definitive markers available to identify the stem cells, and thus the number of these cells in each crypt are unknown. When the bowel is irradiated, the number of crypts remains constant up to a dose just below the LD50/7. Above that dose, there is a log-linear decrease in the number of crypts, usually measured at 3.5 days. […] Data from the crypt assay can be augmented with injection of BrdU. BrdU can be given to animals at one or more times after irradiation to determine the rate of proliferation and rate of elongation of villi.
FGF-P was then repeated daily for 2 days. At 80 hr post-IR, BrdU (120 mg/kg) was injected ip and 4 hours later (about 3.5 days post-IR), the mice were sacrificed and the duodenal, jejunal and ileal segments (3-4 pieces/segment) were harvested, fixed in formalin, processed in paraffin blocks, cut in transverse sections of the full segment circumference (5 μm thick) and stained with H&E or anti-BrdU following the standard immunochemistry procedure (23). The proliferating crypts were defined as containing 10 or more adjacent chromophilic non-Paneth cells and a lumen. The circumference of a transverse cross-section of the intestine was used as a unit. The number of proliferating crypts was counted in each circumference. At least 10 circumferences were scored per mouse and 4-5 mice were used to generate each data point.
The villi length of duodenum, jejunum and ileum was measured using a customized Imaging Pro program.

[2] = Stool hemoccult score after sub-TBI; type: in vivo, mouse (Balb/c, C57BL/6); conditions: Balb/c, 12.5 Gy sub-TBI; FGF-P 2 mg/kg im 15 min post irradiation; Amifostine iv 30 min pre-irradiation; P<0.05
Description: There are commonly employed assays known to be relevant to both mouse and man for determining relative endpoints. These include: 1) stool blood: mucosal barrier breakdown is associated with bleeding of the small bowel; therefore, a hemoccult analysis with a commercial kit (BD Cat #64151) was used in the preliminary data at 3 days after sub-TBI. The time course and frequency of GI bleeding; 2) stool formation: the GI functions of digestion, absorption of nutrition and water, and the regular movement of intestinal muscle are required for formation of normal stool can be measured. All these functions can be upset by radiation. For example, loss of villi leads to decreased fluid absorption and diarrhea. The colon was excised and examined visually for the presence of formed stool at 3.5 days post-IR; 3) endotoximia: bacterial translocation can occur at early times following gastrointestinal radiation exposure.
2) A standard scoring scale was used to evaluate stool formation (diarrhea). The bowel was extracted from the abdomen and visually inspected. Formed stool was easily distinguished from semi-solid and liquid stool as it passed from the ascending to descending colon. FIGS. 7B and 7C show the irradiated bowel in controls compared with FGF-P-treated Balb/c mice. The FGF-P was given at a dose of 2 mg/kg im for three daily doses beginning 15 min after irradiation. […]

[3] = Plasma endotoxin after sub-TBI (tachypleus amebocyte lysate kit); type: in vivo, mouse (Balb/c, C57BL/6); conditions: Balb/c, 10.5 Gy
Procedure: Some studies have employed bacterial culture of liver samples. Bacterial translocation occurs due to mucosal barrier changes (1) at the level of the basement membrane and (2) bowel mucous volume and composition. The most reliable and most clinically applicable method to measure bacterial translocation is the endotoxin assay. The level of plasma endotoxin 3.5 days post-IR was measured with a commercialized kit that utilized tachypleus amebocyte lysate to sensitively quantitate endotoxin at extremely low levels (<0.01 EU/ml); and 4) body weight (BW): poor nutrition and water absorption will result in reduced body weight. The rate and severity of weight loss, as well as the pace of body weight recovery, will be measured.
2) A standard scoring scale was used to evaluate stool formation (diarrhea). The bowel was extracted from the abdomen and visually inspected. Formed stool was easily distinguished from semi-solid and liquid stool as it passed from the ascending to descending colon. FIGS. 7B and 7C show the irradiated bowel in controls compared with FGF-P-treated Balb/c mice. The FGF-P was given at a dose of 2 mg/kg im for three daily doses beginning 15 min after irradiation. Animals were sacrificed 3.5 days after 10.5 Gy sub-TBI.

MCP-1, IL-6, TNFα = assay: Plasma inflammatory molecules after sub-TBI (Luminex bead array); type: in vivo, mouse (Balb/c); conditions: Balb/c, 12 Gy sub-TBI
Procedure: Bead array technology has been developed to facilitate the study of cytokine expression profiles in normal tissues following radiation. Bead arrays have several advantages over ELISA. First, mice have a limited blood volume (0.3-0.4 ml of plasma/mouse). Each ELISA typically requires approximately 0.1 ml and thus only a limited number of assays are possible. Secondly, the time required to perform ELISAs one by one stresses the system in a large experiment and would be difficult to perform in the field in case of a radiological event. The Luminex bead array technology was used. The paired monoclonal antibodies, the highly-purified protein standards, and the more than 50 different cytokinespecific beads were purchased. In these studies, Balb/c mice received 12 Gy sub-TBI and then im injection of vehicle alone (0.2 ml of saline), FGF-P (2 mg/kg at 10 min post-IR and daily for two days), or Amifostine (200 mg/kg, either 30 min before IR, or 10 min after IR). The samples were collected 3.5 days after IR.
All three of these cytokines are associated with increased severity and progression of radiation-related inflammatory toxicity in mouse and man.

[4] = tested on: proliferating crypts of small intestine; conditions: comparison stated for native FGFs; cited from earlier work
irradiated mice (AGS) = conditions: cited from earlier work; for dose of peak response: AGS, LD50/7 or crypt assay
Cdc42, Rac1, Mapk10, Cfl = assay: Gene expression in irradiated BM cells (Luminex multiplex array); type: cell-based, mouse; conditions: treatment 20 min after 5 Gy IR, 6 hours, P<0.05
FGF receptor = conditions: cited from earlier work
[5] = tested on: bovine aortic endothelial cells; conditions: in vitro; cited from earlier work
[6] = in animals; cited from earlier work

Molecule	crypt survival [4]	dose of peak response (irradiated mice (AGS))	binding to FGF receptor (FGF receptor)	downstream signaling (FGF receptor)	cell proliferation and radiation-induced apoptosis [5]	radio-protective effects [6]	also measured
NCCCNCCSP(=O)(O)O [Amifostine]	–	–	–	–	–	–	crypt numbers in the ileum ([1]; 12 Gy, Amifostine given after irradiation): no effect when given after irradiation; crypt numbers in the ileum ([1]; 3.5 days after 12 Gy, Amifostine 200 mg/kg iv 30 min before sub-TBI): level of protection matched that obtained for Amifostine; stool hemoccult score [2]: reduced stool hemoccult score; plasma endotoxin level ([3]; Amifostine given after irradiation): 2.87 EU/ml; plasma endotoxin level (mean) ([3]; Amifostine iv 30 min before IR): 0.93 EU/ml; plasma MCP-1, IL-6 and TNFα (MCP-1, IL-6, TNFα; Amifostine 200 mg/kg 10 min after IR): no benefit; plasma MCP-1, IL-6 and TNFα (MCP-1, IL-6, TNFα; Amifostine 200 mg/kg 30 min before IR): beneficial response
FGF-1: acidic fibroblast growth factor, human protein	approximately doubles crypt survival	approximately 6 μg/mouse	–	–	–	–	–
FGF-2: basic fibroblast growth factor, native full length human protein	approximately doubles crypt survival	approximately 6 μg/mouse	–	–	–	–	expression of Cdc42 (Cdc42, Rac1, Mapk10, Cfl): reversed the IR-suppressed expression; expression of Cfl (cofilin 1) (Cdc42, Rac1, Mapk10, Cfl): suppressed towards normal; expression of Mapk10 (Cdc42, Rac1, Mapk10, Cfl): suppressed towards normal; expression of Rac1 (Cdc42, Rac1, Mapk10, Cfl): reversed the IR-suppressed expression; dose with benefit (irradiated mice (AGS); human FGF-2 in mice): 1 μg/mouse
RFHSWDCIKTWASDTFVLVCYDDGSEA [F2A3, synthetic peptide that mimics FGF-2]	–	–	equivalent to native bFGF	as effectively as bFGF	trigger cell proliferation and block radiation-induced apoptosis similar to bFGF	radio-protective effects similar to bFGF	–
YRSRKYSSWYVALKR [F2A4, synthetic peptide that mimics FGF-2]	–	–	equivalent to native bFGF	as effectively as bFGF	trigger cell proliferation and block radiation-induced apoptosis similar to bFGF	radio-protective effects similar to bFGF	–
